Experimental findings from patent publication US20230093099A1, “COMPOUNDS AND METHODS OF TREATING CANCERS” (CULLGEN (SHANGHAI), INC., priority 2019, published 2023) are described below.

pIC50: −log10 of the molar value.

The first assay concerns RS4;11 cells. Kind of assay: Cell viability assay (CellTiter-Glo) in RS4;11 cells. The format is cell-based. Particulars: Homo sapiens, 72 h; RS4;11 ALL cells treated for three days; read-out: cell viability inhibition IC50. An outline of the steps:
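Three-day compound treatment of RS4;11 ALL cells (5000/well, 3-fold dilution series of 8 or 12 points), with IC50 from a nonlinear least-squares fit to CellTiter-Glo viability data.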
With `CS(=O)(=O)c1ccc(-c2cccc3nc(Nc4ccc(N5CCN(CC(=O)NCCCCCCCNc6ccc7c(c6)C(=O)N(C6CCC(=O)NC6=O)C7=O)CC5)cc4)nn23)cc1` (stereo not drawn) [JA-214], the pIC50 is > 7.00. `Cc1cnc(Nc2ccc(N3CCN(CC(=O)NCCOCCOCCOCCOCCOCCNc4cccc5c4C(=O)N(C4CCC(=O)NC4=O)C5=O)CC3)cc2)nc1Nc1cccc(S(=O)(=O)NC(C)(C)C)c1` (stereo not drawn) [JA-224, 2-(4-(4-((4-((3-(N-(tert-butyl)sulfamoyl)phenyl)amino)-5-methylpyrimidin-2-yl)amino)phenyl)piperazin-1-yl)-N-(17-((2-(2,6-dioxopiperidin-3-yl)-1,3-dioxoisoindolin-4-yl)amino)-3,6,9,12,15-pentaoxaheptadecyl)acetamide]: the pIC50 was > 7.00. In the case of `Cc1cnc(Nc2ccc(N3CCN(C(=O)CNc4ccc5c(c4)C(=O)N(C4CCC(=O)NC4=O)C5=O)CC3)cc2)nc1Nc1cccc(S(=O)(=O)NC(C)(C)C)c1` (stereo not drawn) [JA-225, N-(tert-butyl)-3-((2-((4-(4-((2-(2,6-dioxopiperidin-3-yl)-1,3-dioxoisoindolin-5-yl)glycyl)piperazin-1-yl)phenyl)amino)-5-methylpyrimidin-4-yl)amino)benzenesulfonamide], the pIC50 was > 7.00.

The assay is the same for the next values; noted with them: Homo sapiens, 72 h; RS4;11 cells; cell viability, 3 days, CellTiter-Glo; read-out: IC50.
As for `CS(=O)(=O)c1ccc(-c2cccc3nc(Nc4ccc(N5CCN(CC(=O)NCCOCCOCCOCCOCCOCCNc6ccc7c(c6)C(=O)N(C6CCC(=O)NC6=O)C7=O)CC5)cc4)nn23)cc1` (stereo not drawn) [JA-211, N-(17-((2-(2,6-Dioxopiperidin-3-yl)-1,3-dioxoisoindolin-5-yl)amino)-3,6,9,12,15-pentaoxaheptadecyl)-2-(4-(4-((5-(4-(methylsulfonyl)phenyl)-[1,2,4]triazolo[1,5-a]pyridin-2-yl)amino)phenyl)piperazin-1-yl)acetamide], the pIC50 was < 5.00. On the same count and under the same terms, then `CS(=O)(=O)c1ccc(-c2cccc3nc(Nc4ccc(N5CCN(CC(=O)NCCOCCNc6ccc7c(c6)C(=O)N(C6CCC(=O)NC6=O)C7=O)CC5)cc4)nn23)cc1` (stereo not drawn) [JA-212, N-(2-(2-((2-(2,6-Dioxopiperidin-3-yl)-1,3-dioxoisoindolin-5-yl)amino)ethoxy)ethyl)-2-(4-(4-((5-(4-(methylsulfonyl)phenyl)-[1,2,4]triazolo[1,5-a]pyridin-2-yl)amino)phenyl)piperazin-1-yl)acetamide], with < 5.00; and `CS(=O)(=O)c1ccc(-c2cccc3nc(Nc4ccc(N5CCN(CC(=O)NCCCCCCCNc6ccc7c(c6)C(=O)N(C6CCC(=O)NC6=O)C7=O)CC5)cc4)nn23)cc1` (stereo not drawn) [JA-214], with 7.20.

For `CS(=O)(=O)c1ccc(-c2cccc3nc(Nc4ccc(N5CCN(CC(=O)NCCCCCCNc6ccc7c(c6)C(=O)N(C6CCC(=O)NC6=O)C7=O)CC5)cc4)nn23)cc1` (stereo not drawn) [JA-215, N-(6-((2-(2,6-dioxopiperidin-3-yl)-1,3-dioxoisoindolin-5-yl)amino)hexyl)-2-(4-(4-((5-(4-(methylsulfonyl)phenyl)-[1,2,4]triazolo[1,5-a]pyridin-2-yl)amino)phenyl)piperazin-1-yl)acetamide], the pIC50 was < 5.00. On to `CS(=O)(=O)c1ccc(-c2cccc3nc(Nc4ccc(N5CCN(C(=O)CCCNc6ccc7c(c6)C(=O)N(C6CCC(=O)NC6=O)C7=O)CC5)cc4)nn23)cc1` (stereo not drawn) [JA-216, 2-(2,6-Dioxopiperidin-3-yl)-5-((4-(4-(4-((5-(4-(methylsulfonyl)phenyl)-[1,2,4]triazolo[1,5-a]pyridin-2-yl)amino)phenyl)piperazin-1-yl)-4-oxobutyl)amino)isoindoline-1,3-dione], for which the pIC50 is 5.47.

Regarding `Cc1cnc(Nc2ccc(N3CCN(CC(=O)NCCOCC(=O)N[C@H](C(=O)N4C[C@H](O)C[C@H]4C(=O)NCc4ccc(-c5scnc5C)cc4)C(C)(C)C)CC3)cc2)nc1Nc1cccc(S(=O)(=O)NC(C)(C)C)c1` [JA-217, (2S,4R)-1-((S)-2-(2-(2-(2-(4-(4-((4-((3-(N-(tert-butyl)sulfamoyl)phenyl)amino)-5-methylpyrimidin-2-yl)amino)phenyl)piperazin-1-yl)acetamido)ethoxy)acetamido)-3,3-dimethylbutanoyl)-4-hydroxy-N-(4-(4-methylthiazol-5-yl)benzyl)pyrrolidine-2-carboxamide], the negative logarithm of the IC50 (pIC50) is 5.25.

As for `Cc1cnc(Nc2ccc(N3CCN(CC(=O)NCCOCCC(=O)N[C@H](C(=O)N4C[C@H](O)C[C@H]4C(=O)NCc4ccc(-c5scnc5C)cc4)C(C)(C)C)CC3)cc2)nc1Nc1cccc(S(=O)(=O)NC(C)(C)C)c1` [JA-218, (2S,4R)-1-((S)-2-(3-(2-(2-(4-(4-((4-((3-(N-(tert-butyl)sulfamoyl)phenyl)amino)-5-methylpyrimidin-2-yl)amino)phenyl)piperazin-1-yl)acetamido)ethoxy)propanamido)-3,3-dimethylbutanoyl)-4-hydroxy-N-(4-(4-methylthiazol-5-yl)benzyl)pyrrolidine-2-carboxamide], the pIC50 was < 5.00. Consider `Cc1cnc(Nc2ccc(N3CCN(CC(=O)NCCOCCOCCC(=O)N[C@H](C(=O)N4C[C@H](O)C[C@H]4C(=O)NCc4ccc(-c5scnc5C)cc4)C(C)(C)C)CC3)cc2)nc1Nc1cccc(S(=O)(=O)NC(C)(C)C)c1` [JA-219, (2S,4R)-1-((S)-14-(tert-butyl)-1-(4-(4-((4-((3-(N-(tert-butyl)sulfamoyl)phenyl)amino)-5-methylpyrimidin-2-yl)amino)phenyl)piperazin-1-yl)-2,12-dioxo-6,9-dioxa-3,13-diazapentadecan-15-oyl)-4-hydroxy-N-(4-(4-methylthiazol-5-yl)benzyl)pyrrolidine-2-carboxamide], for which the pIC50 was < 5.00. The same measure, in the same setting: with `Cc1cnc(Nc2ccc(N3CCN(CC(=O)NCCOCCOCCOCC(=O)N[C@H](C(=O)N4C[C@H](O)C[C@H]4C(=O)NCc4ccc(-c5scnc5C)cc4)C(C)(C)C)CC3)cc2)nc1Nc1cccc(S(=O)(=O)NC(C)(C)C)c1` [JA-220, (2S,4R)-1-((S)-2-(tert-butyl)-17-(4-(4-((4-((3-(N-(tert-butyl)sulfamoyl)phenyl)amino)-5-methylpyrimidin-2-yl)amino)phenyl)piperazin-1-yl)-4,16-dioxo-6,9,12-trioxa-3,15-diazaheptadecanoyl)-4-hydroxy-N-(4-(4-methylthiazol-5-yl)benzyl)pyrrolidine-2-carboxamide] the figure was < 5.00; with `Cc1cnc(Nc2ccc(N3CCN(CC(=O)NCCOCCOCCOCCC(=O)N[C@H](C(=O)N4C[C@H](O)C[C@H]4C(=O)NCc4ccc(-c5scnc5C)cc4)C(C)(C)C)CC3)cc2)nc1Nc1cccc(S(=O)(=O)NC(C)(C)C)c1` [JA-221, (2S,4R)-1-((S)-17-(tert-butyl)-1-(4-(4-((4-((3-(N-(tert-butyl)sulfamoyl)phenyl)amino)-5-methylpyrimidin-2-yl)amino)phenyl)piperazin-1-yl)-2,15-dioxo-6,9,12-trioxa-3,16-diazaoctadecan-18-oyl)-4-hydroxy-N-(4-(4-methylthiazol-5-yl)benzyl)pyrrolidine-2-carboxamide], < 5.00; with `Cc1cnc(Nc2ccc(N3CCN(CC(=O)NCCOCCOCCOCCOCCOCCC(=O)N[C@H](C(=O)N4C[C@H](O)C[C@H]4C(=O)NCc4ccc(-c5scnc5C)cc4)C(C)(C)C)CC3)cc2)nc1Nc1cccc(S(=O)(=O)NC(C)(C)C)c1` [JA-223, (2S,4R)-1-((S)-23-(tert-butyl)-1-(4-(4-((4-((3-(N-(tert-butyl)sulfamoyl)phenyl)amino)-5-methylpyrimidin-2-yl)amino)phenyl)piperazin-1-yl)-2,21-dioxo-6,9,12,15,18-pentaoxa-3,22-diazatetracosan-24-oyl)-4-hydroxy-N-(4-(4-methylthiazol-5-yl)benzyl)pyrrolidine-2-carboxamide], 5.03.

Turning to `Cc1cnc(Nc2ccc(N3CCN(CC(=O)NCCOCCOCCOCCOCCOCCNc4cccc5c4C(=O)N(C4CCC(=O)NC4=O)C5=O)CC3)cc2)nc1Nc1cccc(S(=O)(=O)NC(C)(C)C)c1` (stereo not drawn) [JA-224, 2-(4-(4-((4-((3-(N-(tert-butyl)sulfamoyl)phenyl)amino)-5-methylpyrimidin-2-yl)amino)phenyl)piperazin-1-yl)-N-(17-((2-(2,6-dioxopiperidin-3-yl)-1,3-dioxoisoindolin-4-yl)amino)-3,6,9,12,15-pentaoxaheptadecyl)acetamide], the pIC50 is 6.98. On to `Cc1cnc(Nc2ccc(N3CCN(C(=O)CNc4ccc5c(c4)C(=O)N(C4CCC(=O)NC4=O)C5=O)CC3)cc2)nc1Nc1cccc(S(=O)(=O)NC(C)(C)C)c1` (stereo not drawn) [JA-225, N-(tert-butyl)-3-((2-((4-(4-((2-(2,6-dioxopiperidin-3-yl)-1,3-dioxoisoindolin-5-yl)glycyl)piperazin-1-yl)phenyl)amino)-5-methylpyrimidin-4-yl)amino)benzenesulfonamide], for which the pIC50 is 7.18. In the case of `Cc1cnc(Nc2ccc(N3CCN(C(=O)CCNc4ccc5c(c4)C(=O)N(C4CCC(=O)NC4=O)C5=O)CC3)cc2)nc1Nc1cccc(S(=O)(=O)NC(C)(C)C)c1` (stereo not drawn) [JA-226, N-(tert-butyl)-3-((2-((4-(4-(3-((2-(2,6-dioxopiperidin-3-yl)-1,3-dioxoisoindolin-5-yl)amino)propanoyl)piperazin-1-yl)phenyl)amino)-5-methylpyrimidin-4-yl)amino)benzenesulfonamide], the pIC50 is 6.44. Still for that read-out and setting: then `Cc1cnc(Nc2ccc(N3CCN(C(=O)CCCNc4ccc5c(c4)C(=O)N(C4CCC(=O)NC4=O)C5=O)CC3)cc2)nc1Nc1cccc(S(=O)(=O)NC(C)(C)C)c1` (stereo not drawn) [JA-227, N-(tert-butyl)-3-((2-((4-(4-(4-((2-(2,6-dioxopiperidin-3-yl)-1,3-dioxoisoindolin-5-yl)amino)butanoyl)piperazin-1-yl)phenyl)amino)-5-methylpyrimidin-4-yl)amino)benzenesulfonamide], with 5.51; and `Cc1cnc(Nc2ccc(N3CCN(C(=O)CCCCNc4ccc5c(c4)C(=O)N(C4CCC(=O)NC4=O)C5=O)CC3)cc2)nc1Nc1cccc(S(=O)(=O)NC(C)(C)C)c1` (stereo not drawn) [JA-228, N-(tert-butyl)-3-((2-((4-(4-(5-((2-(2,6-dioxopiperidin-3-yl)-1,3-dioxoisoindolin-5-yl)amino)pentanoyl)piperazin-1-yl)phenyl)amino)-5-methylpyrimidin-4-yl)amino)benzenesulfonamide], with 5.70; and `Cc1cnc(Nc2ccc(N3CCN(C(=O)CCCCCNc4ccc5c(c4)C(=O)N(C4CCC(=O)NC4=O)C5=O)CC3)cc2)nc1Nc1cccc(S(=O)(=O)NC(C)(C)C)c1` (stereo not drawn) [JA-229, N-(tert-butyl)-3-((2-((4-(4-(6-((2-(2,6-dioxopiperidin-3-yl)-1,3-dioxoisoindolin-5-yl)amino)hexanoyl)piperazin-1-yl)phenyl)amino)-5-methylpyrimidin-4-yl)amino)benzenesulfonamide], with < 5.00. In the case of `Cc1cnc(Nc2ccc(N3CCN(C(=O)CCCCCCNc4ccc5c(c4)C(=O)N(C4CCC(=O)NC4=O)C5=O)CC3)cc2)nc1Nc1cccc(S(=O)(=O)NC(C)(C)C)c1` (stereo not drawn) [JA-230, N-(tert-butyl)-3-((2-((4-(4-(7-((2-(2,6-dioxopiperidin-3-yl)-1,3-dioxoisoindolin-5-yl)amino)heptanoyl)piperazin-1-yl)phenyl)amino)-5-methylpyrimidin-4-yl)amino)benzenesulfonamide], the pIC50 is < 5.00.
